The source of these data is US7829589B2, “Sulfonamide compounds and uses thereof” (Elixir Pharmaceuticals, Inc., priority 2005, dated 2010).

Structures are written as SMILES.

The target of this experiment is GHS-R (Homo sapiens, UniProt Q92847). The experiment in a line: GHS-R antagonist activity (Ki) in a cell based assay. An outline of the steps: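 Transfected COS-7 cells were labelled 24 h with [^3H]-myo-inositol and preincubated 30 min at 37 °C in HEPES buffer pH 7.4 with 10 mM LiCl, optionally with 1 U/ml adenosine deaminase. Compound was applied for 45 min at 37 °C. [^3H]-inositol phosphates were extracted with perchloric acid and isolated by anion-exchange resin.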
GHS-R, sequence (Q92847 whole entry, species assumed): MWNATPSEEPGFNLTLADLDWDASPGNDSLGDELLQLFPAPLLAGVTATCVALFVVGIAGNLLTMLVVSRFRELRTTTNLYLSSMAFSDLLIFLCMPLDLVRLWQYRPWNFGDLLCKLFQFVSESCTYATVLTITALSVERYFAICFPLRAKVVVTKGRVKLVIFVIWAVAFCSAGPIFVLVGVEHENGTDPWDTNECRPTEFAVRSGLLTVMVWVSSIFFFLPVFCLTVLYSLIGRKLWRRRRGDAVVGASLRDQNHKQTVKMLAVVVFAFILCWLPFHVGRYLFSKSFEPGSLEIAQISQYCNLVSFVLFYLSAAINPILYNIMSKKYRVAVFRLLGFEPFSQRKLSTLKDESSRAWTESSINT
The compound `CCN(CC)CCS(=O)(=O)N[C@H](CCc1ccccc1)c1nc(CCOC)no1` [Compound 78, 2-Diethylamino-ethanesulfonic acid {(R)-1-[3-(2-methoxy-ethyl)-[1,2,4]oxadiazol-5-yl]-3-phenyl-propyl}-amide] displayed a Ki of 500 to 1000 nM.

`CCN(CC)CCCS(=O)(=O)NCc1nc(-c2ccc(OC)cc2)no1` [Compound 148, 3-Diethylamino-propane-1-sulfonic acid [3-(4-methoxy-phenyl)-[1,2,4]oxadiazol-5-ylmethyl]-amide]: the Ki fell in the range of 500 to 1000 nM.

On to `CCN(CC)CCCS(=O)(=O)N[C@H](CCc1ccccc1)c1nc(-c2cccc(Cl)c2)n[nH]1` [Compound 70, 3-Diethylamino-propane-1-sulfonic acid {(R)-1-[5-(3-chloro-phenyl)-2H-[1,2,4]triazol-3-yl]-3-phenyl-propyl}-amide], for which the Ki is under 100 nM.

For `CCN(CC)CCCS(=O)(=O)N[C@H](CCc1ccccc1)c1nc(-c2csc(C)n2)n[nH]1` [Compound 137, 3-Diethylamino-propane-1-sulfonic acid {(R)-1-[5-(2-methyl-thiazol-4-yl)-2H-[1,2,4]triazol-3-yl]-3-phenyl-propyl}-amide], the Ki is under 100 nM.

Compound `CCN(CC)CCCS(=O)(=O)N[C@H](CCc1ccccc1)c1nc(-c2ccccc2F)n[nH]1` [Compound 29, 3-Diethylamino-propane-1-sulfonic acid {(R)-1-[5-(2-fluoro-phenyl)-2H-[1,2,4]triazol-3-yl]-3-phenyl-propyl}-amide] gave a Ki of under 100 nM.

The compound `CCN(CC)CCCS(=O)(=O)N[C@H](CCc1ccccc1)c1nc(Cc2ccc(OC)c(OC)c2)n[nH]1` [Compound 32, 3-Diethylamino-propane-1-sulfonic acid {(R)-1-[5-(3,4-dimethoxy-benzyl)-2H-[1,2,4]triazol-3-yl]-3-phenyl-propyl}-amide] displayed a Ki of under 100 nM.

The compound `CCN(CC)CCCS(=O)(=O)N[C@H](CCc1ccccc1)c1nc(-c2ccc(Cl)cc2Cl)n[nH]1` [Compound 58, 3-Diethylamino-propane-1-sulfonic acid {(R)-1-[5-(2,4-dichloro-phenyl)-2H-[1,2,4]triazol-3-yl]-3-phenyl-propyl}-amide] yielded a Ki of under 100 nM.

As for `CCN(CC)CCCS(=O)(=O)N[C@H](CCc1ccccc1)c1nc(Cc2cccc(OC)c2)no1` [Compound 109, 3-Diethylamino-propane-1-sulfonic acid {(R)-1-[3-(3-methoxy-benzyl)-[1,2,4]oxadiazol-5-yl]-3-phenyl-propyl}-amide], the Ki is under 100 nM.

`CCN(CC)CCCS(=O)(=O)N[C@H](CCc1ccccc1)c1nc(-c2cccc(Br)c2)no1` [Compound 64, 3-Diethylamino-propane-1-sulfonic acid {(R)-1-[3-(3-bromo-phenyl)-[1,2,4]oxadiazol-5-yl]-3-phenyl-propyl}-amide] registered a Ki of under 100 nM.

For `CCN(CC)CCCS(=O)(=O)N[C@H](CCc1ccccc1)c1nc(-c2ccccc2C)n[nH]1` [Compound 104, 3-Diethylamino-propane-1-sulfonic acid [(R)-3-phenyl-1-(5-o-tolyl-2H-[1,2,4]triazol-3-yl)-propyl]-amide], the Ki was under 100 nM.

The compound `CCN(CC)CCCS(=O)(=O)N[C@H](CCc1ccccc1)c1nc(Cc2ccc(Cl)cc2)n[nH]1` [Compound 24, 3-Diethylamino-propane-1-sulfonic acid {(R)-1-[5-(4-chloro-benzyl)-2H-[1,2,4]triazol-3-yl]-3-phenyl-propyl}-amide] yielded a Ki of under 100 nM.

On to `CCN(CC)CCCS(=O)(=O)N[C@H](CCc1ccccc1)c1nc(Cc2ccc(F)cc2)n[nH]1` [Compound 5, 3-Diethylamino-propane-1-sulfonic acid {(R)-1-[5-(4-fluoro-benzyl)-2H-[1,2,4]triazol-3-yl]-3-phenyl-propyl}-amide], for which the Ki was under 100 nM.

`CCN(CC)CCCS(=O)(=O)N[C@H](COCc1ccccc1)c1nc(-c2ncccc2C)no1` [Compound 34, 3-Diethylamino-propane-1-sulfonic acid {(R)-2-benzyloxy-1-[3-(3-methyl-pyridin-2-yl)-[1,2,4]oxadiazol-5-yl]-ethyl}-amide]: the Ki is 500 to 1000 nM.

The compound `CCN(CC)CCCS(=O)(=O)N[C@H](CCc1ccccc1)c1nc(Cc2ccc3c(c2)OCO3)no1` [Compound 55, 3-Diethylamino-propane-1-sulfonic acid [(R)-1-(3-benzo[1,3]dioxol-5-ylmethyl-[1,2,4]oxadiazol-5-yl)-3-phenyl-propyl]-amide] showed an inhibitory constant (Ki) of under 100 nM.

In turn, `CCN(CC)CCCS(=O)(=O)N[C@H](CCc1ccccc1)c1nc(C2CNc3ccccc3O2)n[nH]1` (stereo partly drawn) [Compound 136, 3-Diethylamino-propane-1-sulfonic acid {(R)-1-[5-(3,4-dihydro-2H-benzo[1,4]oxazin-2-yl)-2H-[1,2,4]triazol-3-yl]-3-phenyl-propyl}-amide] had a Ki of under 100 nM.

`CCN(CC)CCCS(=O)(=O)N[C@H](CCc1ccccc1)c1nc(-c2ccc(C(C)(C)C)cc2)n[nH]1` [Compound 42, 3-Diethylamino-propane-1-sulfonic acid {(R)-1-[5-(4-tert-butyl-phenyl)-2H-[1,2,4]triazol-3-yl]-3-phenyl-propyl}-amide] came in with a Ki of at least 1000 nM.

Compound `CCN(CC)CCCS(=O)(=O)N[C@H](CCc1ccccc1)c1nc(-c2cccc(Cl)c2Cl)n[nH]1` [Compound 3, 3-Diethylamino-propane-1-sulfonic acid {(R)-1-[5-(2,3-dichloro-phenyl)-2H-[1,2,4]triazol-3-yl]-3-phenyl-propyl}-amide] registered a Ki of under 100 nM.

`CCN(CC)CCCS(=O)(=O)N[C@H](CCc1ccccc1)c1nc(-c2c(C)cccc2C)no1` [Compound 52, 3-Diethylamino-propane-1-sulfonic acid {(R)-1-[3-(2,6-dimethyl-phenyl)-[1,2,4]oxadiazol-5-yl]-3-phenyl-propyl}-amide] came in with a Ki of 100 to 500 nM.

Turning to `CCN(CC)CCS(=O)(=O)N[C@H](CCc1ccccc1)c1nc(-c2ccc(OC)cc2)no1` [Compound 88, 2-Diethylamino-ethanesulfonic acid {(R)-1-[3-(4-methoxy-phenyl)-[1,2,4]oxadiazol-5-yl]-3-phenyl-propyl}-amide], the Ki is at least 1000 nM.

The compound `CCN(CC)CCCS(=O)(=O)NCc1nc(-c2ccc(OC)cc2)n[nH]1` [Compound 156, 3-Diethylamino-propane-1-sulfonic acid [5-(4-methoxy-phenyl)-2H-[1,2,4]triazol-3-ylmethyl]-amide] displayed a Ki of 100 to 500 nM.

In the case of `CCN(CC)CCCS(=O)(=O)N[C@H](CCc1ccccc1)c1nc(-c2c(Cl)cccc2Cl)no1` [Compound 12, 3-Diethylamino-propane-1-sulfonic acid {(R)-1-[3-(2,6-dichloro-phenyl)-[1,2,4]oxadiazol-5-yl]-3-phenyl-propyl}-amide], the Ki was under 100 nM.

`CCN(CC)CCS(=O)(=O)N[C@H](CCc1ccccc1)c1nc(Cc2ccc3c(c2)OCO3)no1` [Compound 81, 2-Diethylamino-ethanesulfonic acid [(R)-1-(3-benzo[1,3]dioxol-5-ylmethyl-[1,2,4]oxadiazol-5-yl)-3-phenyl-propyl]-amide] registered an inhibitory constant (Ki) of 100 to 500 nM.

`CCN(CC)CCCS(=O)(=O)N[C@H](CCc1ccccc1)c1nc(-c2cccnc2)no1` [Compound 41, 3-Diethylamino-propane-1-sulfonic acid [(R)-3-phenyl-1-(3-pyridin-3-yl-[1,2,4]oxadiazol-5-yl)-propyl]-amide] registered a Ki of 100 to 500 nM.

As usually defined, the Ki is the dissociation constant of the complex between target and ligand, obtained from inhibition or displacement. Low values mean a stronger hold on the target, high ones a looser hold on the target.
